According to US12590118B2, “Salt and crystal form of steroid derivative regulator” (Shanghai Hansoh Biomedical Co., Ltd., priority 2019, dated 2026):

Assay: Crystal form stability experiment (XRPD)
Format: physicochemical
Method: X-ray powder diffraction assay was carried out, and the obtained data was compared with the initial data.

Compound: C[C@@H]1C[C@H](C(=O)Cn2ccc(C#N)n2)[C@@]2(C)CC[C@H]3[C@@H](CC[C@@H]4C[C@](C)(O)CC[C@@H]43)[C@H]12 [Crystal form I, 1-(2-((3R,5R,8R,9R,10S,13S,14S,15R,17S)-3-Hydroxy-3,13,15-trimethylhexadecahydro-1H-cyclopenta[a]phenanthren-17-yl)-2-oxoethyl)-1H-pyrazole-3-carbonitrile]
- X-ray powder diffraction peak No. 1 (0 day (initial)): 7.3
- X-ray powder diffraction peak No. 2 (0 day (initial)): 11.1
- X-ray powder diffraction peak No. 3 (0 day (initial)): 11.9
- X-ray powder diffraction peak No. 4 (0 day (initial)): 12.6
- X-ray powder diffraction peak No. 5 (0 day (initial)): 16.7
- X-ray powder diffraction peak No. 6 (0 day (initial)): 17.4
- X-ray powder diffraction peak No. 7 (0 day (initial)): 20.2
- X-ray powder diffraction peak No. 8 (0 day (initial)): 20.6
- X-ray powder diffraction peak No. 9 (0 day (initial)): 21.9
- X-ray powder diffraction peak No. 10 (0 day (initial)): 23.9
- X-ray powder diffraction peak No. 11 (0 day (initial)): 38.4
- X-ray powder diffraction peak No. 1 (25° C. RH75%, 5 days): 7.3
- X-ray powder diffraction peak No. 2 (25° C. RH75%, 5 days): 11.0
- X-ray powder diffraction peak No. 3 (25° C. RH75%, 5 days): 11.8
- X-ray powder diffraction peak No. 4 (25° C. RH75%, 5 days): 12.5
- X-ray powder diffraction peak No. 5 (25° C. RH75%, 5 days): 16.6
- X-ray powder diffraction peak No. 6 (25° C. RH75%, 5 days): 17.3
- X-ray powder diffraction peak No. 7 (25° C. RH75%, 5 days): 20.1
- X-ray powder diffraction peak No. 8 (25° C. RH75%, 5 days): 20.5
- X-ray powder diffraction peak No. 9 (25° C. RH75%, 5 days): 21.7
- X-ray powder diffraction peak No. 10 (25° C. RH75%, 5 days): 24.1
- X-ray powder diffraction peak No. 11 (25° C. RH75%, 5 days): 38.2
- X-ray powder diffraction peak No. 1 (25° C. RH75%, 10 days): 7.3
- X-ray powder diffraction peak No. 2 (25° C. RH75%, 10 days): 11.0
- X-ray powder diffraction peak No. 3 (25° C. RH75%, 10 days): 11.8
- X-ray powder diffraction peak No. 4 (25° C. RH75%, 10 days): 12.5
- X-ray powder diffraction peak No. 5 (25° C. RH75%, 10 days): 16.6
- X-ray powder diffraction peak No. 6 (25° C. RH75%, 10 days): 17.3
- X-ray powder diffraction peak No. 7 (25° C. RH75%, 10 days): 20.1
- X-ray powder diffraction peak No. 8 (25° C. RH75%, 10 days): 20.5
- X-ray powder diffraction peak No. 9 (25° C. RH75%, 10 days): 21.8
- X-ray powder diffraction peak No. 10 (25° C. RH75%, 10 days): 24.1
- X-ray powder diffraction peak No. 11 (25° C. RH75%, 10 days): 38.2
- X-ray powder diffraction peak No. 1 (25° C. RH75%, 30 days): 7.1
- X-ray powder diffraction peak No. 2 (25° C. RH75%, 30 days): 11.2
- X-ray powder diffraction peak No. 3 (25° C. RH75%, 30 days): 11.7
- X-ray powder diffraction peak No. 4 (25° C. RH75%, 30 days): 12.4
- X-ray powder diffraction peak No. 5 (25° C. RH75%, 30 days): 16.5
- X-ray powder diffraction peak No. 6 (25° C. RH75%, 30 days): 17.2
- X-ray powder diffraction peak No. 7 (25° C. RH75%, 30 days): 20.0
- X-ray powder diffraction peak No. 8 (25° C. RH75%, 30 days): 20.7
- X-ray powder diffraction peak No. 9 (25° C. RH75%, 30 days): 22.0
- X-ray powder diffraction peak No. 10 (25° C. RH75%, 30 days): 24.0
- X-ray powder diffraction peak No. 11 (25° C. RH75%, 30 days): 38.2
- X-ray powder diffraction peak No. 1 (25° C. RH90%, 5 days): 7.2
- X-ray powder diffraction peak No. 2 (25° C. RH90%, 5 days): 11.0
- X-ray powder diffraction peak No. 3 (25° C. RH90%, 5 days): 11.8
- X-ray powder diffraction peak No. 4 (25° C. RH90%, 5 days): 12.5
- X-ray powder diffraction peak No. 5 (25° C. RH90%, 5 days): 16.5
- X-ray powder diffraction peak No. 6 (25° C. RH90%, 5 days): 17.3
- X-ray powder diffraction peak No. 7 (25° C. RH90%, 5 days): 20.1
- X-ray powder diffraction peak No. 8 (25° C. RH90%, 5 days): 20.5
- X-ray powder diffraction peak No. 9 (25° C. RH90%, 5 days): 21.7
- X-ray powder diffraction peak No. 10 (25° C. RH90%, 5 days): 24.1
- X-ray powder diffraction peak No. 11 (25° C. RH90%, 5 days): 38.3
- X-ray powder diffraction peak No. 1 (25° C. RH90%, 10 days): 7.2
- X-ray powder diffraction peak No. 2 (25° C. RH90%, 10 days): 11.0
- X-ray powder diffraction peak No. 3 (25° C. RH90%, 10 days): 11.8
- X-ray powder diffraction peak No. 4 (25° C. RH90%, 10 days): 12.5
- X-ray powder diffraction peak No. 5 (25° C. RH90%, 10 days): 16.6
- X-ray powder diffraction peak No. 6 (25° C. RH90%, 10 days): 17.3
- X-ray powder diffraction peak No. 7 (25° C. RH90%, 10 days): 20.2
- X-ray powder diffraction peak No. 8 (25° C. RH90%, 10 days): 20.5
- X-ray powder diffraction peak No. 9 (25° C. RH90%, 10 days): 21.8
- X-ray powder diffraction peak No. 10 (25° C. RH90%, 10 days): 23.8
- X-ray powder diffraction peak No. 11 (25° C. RH90%, 10 days): 38.3
- X-ray powder diffraction peak No. 1 (25° C. RH90%, 30 days): 7.2
- X-ray powder diffraction peak No. 2 (25° C. RH90%, 30 days): 11.0
- X-ray powder diffraction peak No. 3 (25° C. RH90%, 30 days): 11.8
- X-ray powder diffraction peak No. 4 (25° C. RH90%, 30 days): 12.5
- X-ray powder diffraction peak No. 5 (25° C. RH90%, 30 days): 16.6
- X-ray powder diffraction peak No. 6 (25° C. RH90%, 30 days): 17.3
- X-ray powder diffraction peak No. 7 (25° C. RH90%, 30 days): 20.1
- X-ray powder diffraction peak No. 8 (25° C. RH90%, 30 days): 20.5
- X-ray powder diffraction peak No. 9 (25° C. RH90%, 30 days): 21.8
- X-ray powder diffraction peak No. 10 (25° C. RH90%, 30 days): 24.0
- X-ray powder diffraction peak No. 11 (25° C. RH90%, 30 days): 38.2
- X-ray powder diffraction peak No. 1 (40° C., 5 days): 7.2
- X-ray powder diffraction peak No. 2 (40° C., 5 days): 11.0
- X-ray powder diffraction peak No. 3 (40° C., 5 days): 11.8
- X-ray powder diffraction peak No. 4 (40° C., 5 days): 12.5
- X-ray powder diffraction peak No. 5 (40° C., 5 days): 16.6
- X-ray powder diffraction peak No. 6 (40° C., 5 days): 17.3
- X-ray powder diffraction peak No. 7 (40° C., 5 days): 20.1
- X-ray powder diffraction peak No. 8 (40° C., 5 days): 20.5
- X-ray powder diffraction peak No. 9 (40° C., 5 days): 22.1
- X-ray powder diffraction peak No. 10 (40° C., 5 days): 23.8
- X-ray powder diffraction peak No. 11 (40° C., 5 days): 38.3
- X-ray powder diffraction peak No. 1 (40° C., 10 days): 7.3
- X-ray powder diffraction peak No. 2 (40° C., 10 days): 11.0
- X-ray powder diffraction peak No. 3 (40° C., 10 days): 11.8
- X-ray powder diffraction peak No. 4 (40° C., 10 days): 12.5
- X-ray powder diffraction peak No. 5 (40° C., 10 days): 16.6
- X-ray powder diffraction peak No. 6 (40° C., 10 days): 17.3
- X-ray powder diffraction peak No. 7 (40° C., 10 days): 20.2
- X-ray powder diffraction peak No. 8 (40° C., 10 days): 20.5
- X-ray powder diffraction peak No. 9 (40° C., 10 days): 21.9
- X-ray powder diffraction peak No. 10 (40° C., 10 days): 23.8
- X-ray powder diffraction peak No. 11 (40° C., 10 days): 38.2
- X-ray powder diffraction peak No. 1 (40° C., 30 days): 7.2
- X-ray powder diffraction peak No. 2 (40° C., 30 days): 11.0
- X-ray powder diffraction peak No. 3 (40° C., 30 days): 11.8
- X-ray powder diffraction peak No. 4 (40° C., 30 days): 12.5
- X-ray powder diffraction peak No. 5 (40° C., 30 days): 16.6
- X-ray powder diffraction peak No. 6 (40° C., 30 days): 17.3
- X-ray powder diffraction peak No. 7 (40° C., 30 days): 20.1
- X-ray powder diffraction peak No. 8 (40° C., 30 days): 20.5
- X-ray powder diffraction peak No. 9 (40° C., 30 days): 22.0
- X-ray powder diffraction peak No. 10 (40° C., 30 days): 23.7
- X-ray powder diffraction peak No. 11 (40° C., 30 days): 38.2
- X-ray powder diffraction peak No. 1 (60° C., 5 days): 7.1
- X-ray powder diffraction peak No. 2 (60° C., 5 days): 10.9
- X-ray powder diffraction peak No. 3 (60° C., 5 days): 11.7
- X-ray powder diffraction peak No. 4 (60° C., 5 days): 12.4
- X-ray powder diffraction peak No. 5 (60° C., 5 days): 16.5
- X-ray powder diffraction peak No. 6 (60° C., 5 days): 17.2
- X-ray powder diffraction peak No. 7 (60° C., 5 days): 20.0
- X-ray powder diffraction peak No. 8 (60° C., 5 days): 20.7
- X-ray powder diffraction peak No. 9 (60° C., 5 days): 22.0
- X-ray powder diffraction peak No. 10 (60° C., 5 days): 24.0
- X-ray powder diffraction peak No. 11 (60° C., 5 days): 38.2
- X-ray powder diffraction peak No. 1 (60° C., 10 days): 7.2
- X-ray powder diffraction peak No. 2 (60° C., 10 days): 10.9
- X-ray powder diffraction peak No. 3 (60° C., 10 days): 11.7
- X-ray powder diffraction peak No. 4 (60° C., 10 days): 12.4
- X-ray powder diffraction peak No. 5 (60° C., 10 days): 16.5
- X-ray powder diffraction peak No. 6 (60° C., 10 days): 17.2
- X-ray powder diffraction peak No. 7 (60° C., 10 days): 20.1
- X-ray powder diffraction peak No. 8 (60° C., 10 days): 20.7
- X-ray powder diffraction peak No. 9 (60° C., 10 days): 22.0
- X-ray powder diffraction peak No. 10 (60° C., 10 days): 24.0
- X-ray powder diffraction peak No. 11 (60° C., 10 days): 38.2
- X-ray powder diffraction peak No. 1 (60° C., 30 days): 7.2
- X-ray powder diffraction peak No. 2 (60° C., 30 days): 11.0
- X-ray powder diffraction peak No. 3 (60° C., 30 days): 11.8
- X-ray powder diffraction peak No. 4 (60° C., 30 days): 12.5
- X-ray powder diffraction peak No. 5 (60° C., 30 days): 16.6
- X-ray powder diffraction peak No. 6 (60° C., 30 days): 17.3
- X-ray powder diffraction peak No. 7 (60° C., 30 days): 20.1
- X-ray powder diffraction peak No. 8 (60° C., 30 days): 20.4
- X-ray powder diffraction peak No. 9 (60° C., 30 days): 21.8
- X-ray powder diffraction peak No. 10 (60° C., 30 days): 23.8
- X-ray powder diffraction peak No. 11 (60° C., 30 days): 38.2
- X-ray powder diffraction peak No. 1 (Light, 5 days): 7.3
- X-ray powder diffraction peak No. 2 (Light, 5 days): 11.0
- X-ray powder diffraction peak No. 3 (Light, 5 days): 11.9
- X-ray powder diffraction peak No. 4 (Light, 5 days): 12.5
- X-ray powder diffraction peak No. 5 (Light, 5 days): 16.6
- X-ray powder diffraction peak No. 6 (Light, 5 days): 17.3
- X-ray powder diffraction peak No. 7 (Light, 5 days): 20.1
- X-ray powder diffraction peak No. 8 (Light, 5 days): 20.6
- X-ray powder diffraction peak No. 9 (Light, 5 days): 22.1
- X-ray powder diffraction peak No. 10 (Light, 5 days): 23.9
- X-ray powder diffraction peak No. 11 (Light, 5 days): 38.3
- X-ray powder diffraction peak No. 1 (Light, 10 days): 7.3
- X-ray powder diffraction peak No. 2 (Light, 10 days): 11.1
- X-ray powder diffraction peak No. 3 (Light, 10 days): 11.9
- X-ray powder diffraction peak No. 4 (Light, 10 days): 12.5
- X-ray powder diffraction peak No. 5 (Light, 10 days): 16.7
- X-ray powder diffraction peak No. 6 (Light, 10 days): 17.3
- X-ray powder diffraction peak No. 7 (Light, 10 days): 20.2
- X-ray powder diffraction peak No. 8 (Light, 10 days): 20.5
- X-ray powder diffraction peak No. 9 (Light, 10 days): 21.9
- X-ray powder diffraction peak No. 10 (Light, 10 days): 23.9
- X-ray powder diffraction peak No. 11 (Light, 10 days): 38.3
- crystal form stability by XRPD (in words) (light, 40° C., 60° C., 25° C./RH75%, 25° C./RH90%, 5, 10 and 30 days): No crystal form conversion had occurred
